# Like-named read-outs stand apart in the source and are kept apart here.
# Tests used:
# hMOR = hMOR (Homo sapiens, UniProt P35372); assay: Receptor binding with [3H]diprenorphine at hMOR
# hKOR = hKOR (Homo sapiens, UniProt P41145); assay: Receptor binding with [3H]diprenorphine at hKOR
# humanDOR = humanDOR (Homo sapiens, UniProt P41143); assay: Receptor binding with [3H]diprenorphine at human DOR
# [1] = PZM analogs, (n) = number of independent experiments, read-out: binding affinity Ki hMOR
# [2] = PZM analogs, (n) = number of independent experiments, read-out: binding affinity Ki hKOR
# [3] = PZM analogs, (n) = number of independent experiments, read-out: binding affinity Ki hDOR
# [4] = ± SD (two experiments) or SEM, (n) experiments, read-out: hKOR [3H]dyprenorphine Ki
# [5] = ± SD (two experiments) or SEM, (n) experiments, read-out: humanDOR [3H]dyprenorphine Ki
# [6] = ± SD (two experiments) or SEM, (n) experiments, read-out: hMOR [3H]dyprenorphine Ki
# Sequence of hMOR (P35372 whole entry): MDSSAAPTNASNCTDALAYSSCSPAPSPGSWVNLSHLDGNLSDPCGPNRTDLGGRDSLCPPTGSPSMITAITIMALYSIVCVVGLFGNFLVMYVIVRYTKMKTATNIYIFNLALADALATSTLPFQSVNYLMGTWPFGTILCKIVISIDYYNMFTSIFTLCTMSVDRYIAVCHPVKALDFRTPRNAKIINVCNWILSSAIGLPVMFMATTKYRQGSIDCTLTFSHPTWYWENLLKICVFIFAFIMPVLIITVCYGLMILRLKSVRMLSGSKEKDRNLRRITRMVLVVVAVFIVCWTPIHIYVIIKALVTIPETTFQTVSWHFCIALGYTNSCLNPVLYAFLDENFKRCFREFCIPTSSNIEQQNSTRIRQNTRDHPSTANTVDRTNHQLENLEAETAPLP
# Sequence of hKOR (P41145 whole entry): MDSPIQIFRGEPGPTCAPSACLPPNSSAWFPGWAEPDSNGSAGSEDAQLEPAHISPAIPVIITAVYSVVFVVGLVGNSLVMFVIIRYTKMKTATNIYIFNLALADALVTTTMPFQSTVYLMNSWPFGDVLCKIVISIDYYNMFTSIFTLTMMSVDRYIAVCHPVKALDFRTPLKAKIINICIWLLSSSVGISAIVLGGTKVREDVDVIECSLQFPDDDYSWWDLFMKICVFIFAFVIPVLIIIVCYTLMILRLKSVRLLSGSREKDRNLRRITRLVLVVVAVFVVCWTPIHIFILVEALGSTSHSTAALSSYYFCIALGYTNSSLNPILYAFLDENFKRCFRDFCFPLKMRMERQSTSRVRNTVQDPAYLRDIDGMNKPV
# Sequence of humanDOR (P41143 whole entry): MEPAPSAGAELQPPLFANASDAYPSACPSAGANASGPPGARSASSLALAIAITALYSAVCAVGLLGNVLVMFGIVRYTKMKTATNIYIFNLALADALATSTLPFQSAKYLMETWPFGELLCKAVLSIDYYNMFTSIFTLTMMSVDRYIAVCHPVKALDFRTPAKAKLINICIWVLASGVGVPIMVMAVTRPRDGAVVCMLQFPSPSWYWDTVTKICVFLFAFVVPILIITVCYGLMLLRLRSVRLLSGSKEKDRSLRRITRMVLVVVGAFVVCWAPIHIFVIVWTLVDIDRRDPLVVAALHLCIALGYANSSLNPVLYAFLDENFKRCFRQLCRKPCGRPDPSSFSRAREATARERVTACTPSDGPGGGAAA
Structure (SMILES),Ki (hMOR; [1]),Ki (hKOR; [2]),Ki (humanDOR; [3]),also measured
Cc1cc(O)cc(C)c1C[C@@H](CNC(=O)NCCc1ccsc1)N(C)C,0.0062 µM,0.027 µM,0.051 µM,
C=CCN(C[C@H](Cc1ccccc1)N(C)C)C(=O)N[C@@H](C)Cc1ccsc1,3.2 µM,1.7 µM,~15 µM,
CN(C)[C@H](CNC(=O)NC(C)(C)Cc1ccsc1)Cc1ccc(O)cc1 [drawing 528],0.038 µM,0.046 µM,0.65 µM,
"C[C@H](NC(=O)NC[C@H](Cc1ccc(O)cc1)N(C)C)c1ccccc1 (single isomer, unassigned)",0.038 µM,0.035 µM,0.59 µM,
C[C@@H](Cc1ccsc1)NC(=O)NC[C@H](Cc1ccccc1)N(C)C [BD 127LS],,,,Ki (hKOR; [4]): 1 µM; Ki (humanDOR; [5]): 2.8 µM
CN(C)[C@@H](CNC(=O)NC(C)(C)Cc1ccccc1)Cc1ccccc1,0.64 µM,1.1 µM,1 µM,
C[C@@H](Cc1ccsc1)NC(=O)NC[C@@H](Cc1ccccc1)N(C)C,,3.1 µM,11 µM,
C[C@@H](Cc1ccsc1)NC(=O)NC[C@@H](Cc1ccc(O)cc1)N(C)C,,2.3 µM,4.8 µM,
CN(C)[C@H](CNC(=O)NC1Cc2ccccc2C1)Cc1ccc(O)cc1 [drawing 526],0.0077 µM,0.051 µM,0.056 µM,
CN(C)C(CNC(=O)NCCc1cccc(F)c1)Cc1ccc(O)cc1 (stereo not shown),0.036 µM,0.17 µM,0.25 µM,
C[C@@H](Cc1ccsc1)NC(=O)NC[C@H](Cc1ccccc1)N(C)C [drawing 492],,1 µM,2.8 µM,
CN(C)[C@H](CNC(=O)NCCc1cn(Cc2ccccc2)nn1)Cc1ccc(O)cc1,,,0.38 µM,Ki (hMOR): 0.2 µM; Ki (hKOR): 1.4 µM
COc1ccccc1CCNC(=O)NCC(Cc1ccc(O)cc1)N(C)C (stereo not shown),0.022 µM,0.14 µM,0.15 µM,
C[C@@H](Cc1ccccc1)NC(=O)NC[C@H](Cc1ccc(O)cc1)N(C)C [drawing 517],0.042 µM,0.037 µM,0.36 µM,
CN(C)[C@@H](CNC(=O)NCCc1ccsc1)Cc1ccc(O)cc1,1.5 µM,5.2 µM,11 µM,
CN(C)[C@H](CNC(=O)NC(C)(C)Cc1ccsc1)Cc1ccccc1,0.21 µM,0.79 µM,3 µM,
CC(C)N(C[C@H](Cc1ccc(O)cc1)N(C)C)C(=O)N[C@@H](C)c1cccc2ccccc12,0.4 µM,0.92 µM,0.57 µM,
CN(CCCl)C(CNC(=O)NCCc1ccccc1)Cc1ccc(O)cc1 (stereo not shown),,,,"Ki (humanDOR; binding affinity Ki hDOR, PZM analogs, (n) = number of independent experiments): 0.36 µM"
"CC(Cc1ccsc1)NC(=O)NCC(Cc1ccccc1)N(C)C (single isomer, unassigned) [BD 127DS]",,,,Ki (hKOR; [4]): 3.1 µM; Ki (humanDOR; [5]): 11 µM
COc1cccc(CCNC(=O)NCC(Cc2ccc(O)cc2)N(C)C)c1 (stereo not shown),0.11 µM,1.3 µM,0.22 µM,
CN(C)C(CNC(=O)NCCc1ccccc1F)Cc1ccc(O)cc1 (stereo not shown),0.043 µM,0.44 µM,0.053 µM,

Structure (SMILES),Ki (hMOR; [1]),Ki (hKOR; [2]),Ki (humanDOR; [3]),also measured
CN(CC1CC1)[C@H](CNC(=O)NCCc1ccccc1)Cc1ccc(O)cc1 [drawing 507],0.76 µM,,,
CN(CCc1ccccc1)C(=O)N(C)C[C@H](Cc1ccc(O)cc1)N(C)C [drawing 505],0.49 µM,0.22 µM,4.2 µM,
CN(C[C@H](Cc1ccc(O)cc1)N(C)C)C(=O)NCCc1ccccc1 [drawing 503],0.61 µM,0.34 µM,1.7 µM,
C[C@H](Cc1csc2ccccc12)NC(=O)NC[C@H](Cc1ccc(O)cc1)N(C)C,0.043 µM,0.067 µM,0.083 µM,
CN[C@H](CNC(=O)N[C@@H](C)Cc1ccsc1)Cc1ccc(O)cc1,,0.24 µM,0.7 µM,
"CC(Cc1ccsc1)NC(=O)NCC(Cc1ccc(O)cc1)N(C)C (single isomer, unassigned) [BD 122DR]",,,,Ki (hKOR; [4]): 3.1 µM; Ki (humanDOR; [5]): 4.1 µM
C[C@H](Cc1ccsc1)NC(=O)NC[C@@H](Cc1ccccc1)N(C)C [drawing 489],,5 µM,12 µM,
CN(C)[C@H](CNC(=O)NC(C)(C)Cc1ccsc1)Cc1cccc(O)c1 [drawing 532],0.025 µM,0.032 µM,0.19 µM,
C[C@H](Cc1ccccc1)NC(=O)NC[C@H](Cc1ccc(O)cc1)N(C)C [drawing 516],0.081 µM,0.067 µM,0.091 µM,
Cc1cc(O)cc(C)c1C[C@@H](CNC(=O)N[C@H](C)Cc1ccsc1)N(C)C [drawing 537],0.0041 µM,0.012 µM,0.017 µM,
CN(C)[C@@H](CNC(=O)NCCc1ccsc1)Cc1ccccc1,4.2 µM,8.1 µM,25 µM,
C[C@@H](Cc1ccsc1)NC(=O)NC[C@H](Cc1ccnc(O)c1)N(C)C,0.21 µM,1.2 µM,4.1 µM,
CN(C)[C@H](CNC(=O)NC(C)(C)Cc1ccccc1)Cc1ccccc1,0.49 µM,0.93 µM,3.3 µM,
COc1ccc(CCNC(=O)NCC(Cc2ccc(O)cc2)N(C)C)cc1 (stereo not shown),0.33 µM,1.5 µM,10 µM,
CN(C)[C@H](CNC(=O)NCCc1ccccc1)Cc1ccc(O)cc1 [drawing 514],0.047 µM,0.045 µM,0.25 µM,
Cc1ccc([C@H](C)NC(=O)NC[C@H](Cc2ccc(O)cc2)N(C)C)cc1 [drawing 523],0.15 µM,0.18 µM,0.7 µM,
C=CCN(C[C@H](Cc1ccccc1)N(C)C)C(=O)N[C@H](C)Cc1ccsc1,4.1 µM,3.1 µM,~15 µM,
C[C@H](NC(=O)NC[C@H](Cc1ccc(O)cc1)N(C)C)c1cccc2ccccc12 [drawing 524],0.085 µM,0.074 µM,0.54 µM,
"C[C@H](NC(=O)NC[C@H](Cc1ccc(O)cc1)N(C)C)c1cccc2ccccc12 [DD 50LS, 1-((S)-2-(dimethylamino)-3-(4-hydroxyphenyl)propyl)-3-((S)-1-(naphthalen-1-yl)ethyl)urea]",,,,Ki (hMOR; [6]): 0.084 µM; Ki (hKOR; [4]): 0.071 µM; Ki (humanDOR; [5]): 0.57 µM
"Cc1ccc([C@H](C)NC(=O)NC[C@H](Cc2ccc(O)cc2)N(C)C)cc1 [DD 51LS, 1-((S)-2-(dimethylamino)-3-(4-hydroxyphenyl)propyl)-3-((S)-1-(p-tolyl)ethyl)urea]",,,,Ki (hMOR): 0.15 µM; Ki (hKOR): 0.18 µM; Ki (humanDOR): 0.7 µM
C[C@@H](Cc1csc2ccccc12)NC(=O)NC[C@H](Cc1ccc(O)cc1)N(C)C [drawing 521],0.0083 µM,0.022 µM,0.11 µM,

Structure (SMILES),Ki (hMOR; [1]),Ki (hKOR; [2]),Ki (humanDOR; [3]),also measured
O=C(NCCc1ccccc1)NC[C@H](Cc1ccc(O)cc1)N1CCCC1,0.66 µM,0.77 µM,1.5 µM,
C[C@@H](Cc1ccsc1)NC(=O)NC[C@H](Cc1ccc(O)c(CO)c1)N(C)C [drawing 535],0.066 µM,0.086 µM,1.5 µM,
CN(C)[C@@H](CNC(=O)NC(C)(C)Cc1ccsc1)Cc1ccccc1,0.18 µM,0.96 µM,2.4 µM,
C[C@H](Cc1ccsc1)NC(=O)NC[C@@H](Cc1ccc(O)cc1)N(C)C,,3.1 µM,4.1 µM,
"CC(Cc1ccsc1)NC(=O)NCC(Cc1ccc(O)cc1)N(C)C (single isomer, unassigned) [BD 122DS]",,,,Ki (hKOR; [4]): 2.3 µM; Ki (humanDOR; [5]): 4.8 µM
CN(C)[C@H](CNC(=S)NCCc1ccsc1)Cc1ccc(O)cc1 [drawing 501],0.029 µM,0.086 µM,0.07 µM,
CN(C)[C@H](CNC(=O)NCCc1ccsc1)Cc1ccc(O)cc1 [drawing 500],0.043 µM,0.15 µM,0.33 µM,
CN(C)[C@H](CNC(=O)NCCN1C(=O)C2C3C=CC(O3)C2C1=O)Cc1ccc(O)cc1 (stereo partly shown),,,,Ki (hMOR): 2.3 µM; Ki (hKOR): 8.2 µM; Ki (humanDOR): 36 µM
CN(C)[C@H](CNC(=O)CCCc1ccccc1)Cc1ccc(O)cc1,0.072 µM,0.1 µM,0.37 µM,
CN(C)C(CNC(=O)NCCc1ccc(F)cc1)Cc1ccc(O)cc1 (stereo not shown),0.027 µM,0.19 µM,0.25 µM,
CN(CCO)C(CNC(=O)NCCc1ccccc1)Cc1ccc(O)cc1 (stereo not shown),,,,Ki (hMOR): 0.97 µM; Ki (hKOR): 1.3 µM; Ki (humanDOR): 1.8 µM
CC(Cc1csc2ccccc12)NC(=O)NC[C@H](Cc1ccc(O)cc1)N(C)C (mixture of isomers),0.014 µM,0.019 µM,,
"C[C@H](Cc1ccccc1)NC(=O)NC[C@H](Cc1ccc(O)cc1)N(C)C [DD 61L-A, 1-((S)-2-(dimethylamino)-3-(4-hydroxyphenyl)propyl)-3-((R)-1-phenylpropan-2-yl)urea]",,,,Ki (hMOR; [6]): 0.081 µM; Ki (hKOR; [4]): 0.067 µM; Ki (humanDOR; [5]): 0.091 µM
CN[C@H](CNC(=O)NCCc1ccccc1)Cc1ccc(O)cc1,0.29 µM,,,
C[C@@H](Cc1ccsc1)NC(=O)NC[C@H](Cc1cccc(O)c1)N(C)C [drawing 531],0.034 µM,0.046 µM,0.35 µM,
CN(C)[C@@H](CNC(=O)NC(C)(C)Cc1ccccc1)Cc1ccc(O)cc1,0.46 µM,1.5 µM,3.6 µM,
CN(C)[C@H](CNC(=O)OCCc1ccsc1)Cc1ccc(O)cc1,0.17 µM,0.19 µM,0.57 µM,
C[C@@H](Cc1ccsc1)NC(=O)NC[C@H](Cc1ccc(O)cc1)N(C)C [drawing 512],,0.018 µM,1 µM,
"CC(Cc1ccsc1)NC(=O)NCC(Cc1ccccc1)N(C)C (single isomer, unassigned) [BD 127LR]",,,,Ki (hKOR; [4]): 1.3 µM; Ki (humanDOR; [5]): 1.8 µM
"CC(Cc1ccsc1)NC(=O)NCC(Cc1ccccc1)N(C)C (single isomer, unassigned) [BD 127DR]",,,,Ki (hKOR; [4]): 5 µM; Ki (humanDOR; [5]): 12 µM

# Reference: patent US20200109126A1 (priority 2017, published 2020)
